In ChEMBL document CHEMBL4004849, “Tetrazolylmethyl quinolines: Design, docking studies, synthesis, anticancer and antifungal analyses” (2017):
In brackets after ≈: the same amount, converted by molar mass. Activity calls are given as the source filed them. The rule behind the calls is not given here.

Assays:
Format in all cases: functional
NCI-H23 = test: Growth inhibition of human NCI-H23 cells at 10^-5 M incubated for 48 hrs by sulforhodamine B assay relative to control
UACC-62 = test: Growth inhibition of human UACC62 cells at 10^-5 M incubated for 48 hrs by sulforhodamine B assay relative to control
HL-60(TB) = test: Growth inhibition of human HL-60(TB) cells at 10^-5 M incubated for 48 hrs by sulforhodamine B assay relative to control
Candida albicans [1] = test: Antifungal activity against Candida albicans at 100 ug/ml by disc diffusion method; conditions: read-out: IZ
SF-539 = test: Growth inhibition of human SF539 cells at 10^-5 M incubated for 48 hrs by sulforhodamine B assay relative to control
786-0 = test: Growth inhibition of human 786-0 cells at 10^-5 M incubated for 48 hrs by sulforhodamine B assay relative to control
EKVX = test: Growth inhibition of human EKVX cells at 10^-5 M incubated for 48 hrs by sulforhodamine B assay relative to control
SF-295 = test: Growth inhibition of human SF295 cells at 10^-5 M incubated for 48 hrs by sulforhodamine B assay relative to control
NCI/ADR-RES = test: Growth inhibition of human NCI-ADR-RES cells at 10^-5 M incubated for 48 hrs by sulforhodamine B assay relative to control
Malme-3M = test: Growth inhibition of human MALME-3M cells at 10^-5 M incubated for 48 hrs by sulforhodamine B assay relative to control
UO-31 = test: Growth inhibition of human UO31 cells at 10^-5 M incubated for 48 hrs by sulforhodamine B assay relative to control
Candida albicans [2] = test: Antifungal activity against Candida albicans after 24 hrs by serial dilution method
SNB-75 = test: Growth inhibition of human SNB75 cells at 10^-5 M incubated for 48 hrs by sulforhodamine B assay relative to control
SK-OV-3 = test: Growth inhibition of human SKOV3 cells at 10^-5 M incubated for 48 hrs by sulforhodamine B assay relative to control
T47D = test: Growth inhibition of human T47D cells at 10^-5 M incubated for 48 hrs by sulforhodamine B assay relative to control
Aspergillus fumigatus [3] = test: Antifungal activity against Aspergillus fumigatus at 100 ug/ml by disc diffusion method; conditions: read-out: IZ
TK-10 = test: Growth inhibition of human TK10 cells at 10^-5 M incubated for 48 hrs by sulforhodamine B assay relative to control
OVCAR-4 = test: Growth inhibition of human OVCAR4 cells at 10^-5 M incubated for 48 hrs by sulforhodamine B assay relative to control
M14 = test: Growth inhibition of human M14 cells at 10^-5 M incubated for 48 hrs by sulforhodamine B assay relative to control
MDA-MB-231 = test: Growth inhibition of human MDA-MB-231/ATCC cells at 10^-5 M incubated for 48 hrs by sulforhodamine B assay relative to control
NCI-H460 = test: Growth inhibition of human NCI-H460 cells at 10^-5 M incubated for 48 hrs by sulforhodamine B assay relative to control
COLO 205 = test: Growth inhibition of human COLO205 cells at 10^-5 M incubated for 48 hrs by sulforhodamine B assay relative to control
SNB-19 = test: Growth inhibition of human SNB19 cells at 10^-5 M incubated for 48 hrs by sulforhodamine B assay relative to control
SK-MEL-2 = test: Growth inhibition of human SK-MEL-2 cells at 10^-5 M incubated for 48 hrs by sulforhodamine B assay relative to control
HCT-15 = test: Growth inhibition of human HCT15 cells at 10^-5 M incubated for 48 hrs by sulforhodamine B assay relative to control
MDA-MB-468 = test: Growth inhibition of human MDA-MB-468 cells at 10^-5 M incubated for 48 hrs by sulforhodamine B assay relative to control
LOX IMVI = test: Growth inhibition of human LOXIMVI cells at 10^-5 M incubated for 48 hrs by sulforhodamine B assay relative to control
ACHN = test: Growth inhibition of human ACHN cells at 10^-5 M incubated for 48 hrs by sulforhodamine B assay relative to control
OVCAR-3 = test: Growth inhibition of human OVCAR3 cells at 10^-5 M incubated for 48 hrs by sulforhodamine B assay relative to control
SW-620 = test: Growth inhibition of human SW620 cells at 10^-5 M incubated for 48 hrs by sulforhodamine B assay relative to control
MDA-MB-435 = test: Growth inhibition of human MDA-MB-435 cells at 10^-5 M incubated for 48 hrs by sulforhodamine B assay relative to control
UACC-257 = test: Growth inhibition of human UACC257 cells at 10^-5 M incubated for 48 hrs by sulforhodamine B assay relative to control
SK-MEL-28 = test: Growth inhibition of human SK-MEL-28 cells at 10^-5 M incubated for 48 hrs by sulforhodamine B assay relative to control
OVCAR-5 = test: Growth inhibition of human OVCAR5 cells at 10^-5 M incubated for 48 hrs by sulforhodamine B assay relative to control
KM12 = test: Growth inhibition of human KM12 cells at 10^-5 M incubated for 48 hrs by sulforhodamine B assay relative to control
K562 = test: Growth inhibition of human K562 cells at 10^-5 M incubated for 48 hrs by sulforhodamine B assay relative to control
SN12C = test: Growth inhibition of human SN12C cells at 10^-5 M incubated for 48 hrs by sulforhodamine B assay relative to control
MCF7 = test: Growth inhibition of human MCF7 cells at 10^-5 M incubated for 48 hrs by sulforhodamine B assay relative to control
OVCAR-8 = test: Growth inhibition of human OVCAR8 cells at 10^-5 M incubated for 48 hrs by sulforhodamine B assay relative to control
HCC 2998 = test: Growth inhibition of human HCC2998 cells at 10^-5 M incubated for 48 hrs by sulforhodamine B assay relative to control
SR = test: Growth inhibition of human SR cells at 10^-5 M incubated for 48 hrs by sulforhodamine B assay relative to control
Aspergillus fumigatus [4] = test: Antifungal activity against Aspergillus fumigatus after 24 hrs by serial dilution method
BT-549 = test: Growth inhibition of human BT549 cells at 10^-5 M incubated for 48 hrs by sulforhodamine B assay relative to control
Hs-578T = test: Growth inhibition of human Hs 578T cells at 10^-5 M incubated for 48 hrs by sulforhodamine B assay relative to control
SK-MEL-5 = test: Growth inhibition of human SK-MEL-5 cells at 10^-5 M incubated for 48 hrs by sulforhodamine B assay relative to control

`Clc1nc2ccc(Br)cc2cc1Cn1nnnc1Cc1ccccc1` was tested, and the “growth inhibition (GI)” value (NCI-H23) was “Active”, the “growth inhibition (GI)” value (UACC-62) was “Active” and the “growth inhibition (GI)” value (HL-60(TB)) was “Active”. The zone of inhibition at 100 µg/mL (Candida albicans [1]) was 16 mm, the “growth inhibition (GI)” value (SF-539) was “Active” and the “growth inhibition (GI)” value (786-0) was “Active”. The “growth inhibition (GI)” value (EKVX) was “Active”, the “growth inhibition (GI)” value (SF-295) was “Active” and the “growth inhibition (GI)” value (NCI/ADR-RES) was “Active”. The “growth inhibition (GI)” value (Malme-3M) was “Active”, the “growth inhibition (GI)” value (UO-31) was “Active” and the MIC (Candida albicans [2]) was 10 µg/mL (≈ 24.1 µM). For the same molecule, the “growth inhibition (GI)” value (SNB-75) was “Active”, the “growth inhibition (GI)” value (SK-OV-3) was “Active” and the “growth inhibition (GI)” value (T47D) was “Active”. For the same molecule, the zone of inhibition at 100 µg/mL (Aspergillus fumigatus [3]) was 13 mm, the “growth inhibition (GI)” value (TK-10) was “Active” and the “growth inhibition (GI)” value (OVCAR-4) was “Active”. For the same molecule, the “growth inhibition (GI)” value (M14) was “Active”, the “growth inhibition (GI)” value (MDA-MB-231) was “Active” and the “growth inhibition (GI)” value (NCI-H460) was “Active”. The “growth inhibition (GI)” value (COLO 205) was “Active”, the “growth inhibition (GI)” value (SNB-19) was “Active” and the “growth inhibition (GI)” value (SK-MEL-2) was “Active”. The “growth inhibition (GI)” value (HCT-15) was “Active”, the “growth inhibition (GI)” value (MDA-MB-468) was “Active” and the “growth inhibition (GI)” value (LOX IMVI) was “Active”. For the same molecule, the “growth inhibition (GI)” value (ACHN) was “Active”, the “growth inhibition (GI)” value (OVCAR-3) was “Active” and the “growth inhibition (GI)” value (SW-620) was “Active”. The “growth inhibition (GI)” value (MDA-MB-435) was “Active”, the “growth inhibition (GI)” value (UACC-257) was “Active” and the “growth inhibition (GI)” value (SK-MEL-28) was “Active”. For the same molecule, the “growth inhibition (GI)” value (OVCAR-5) was “Active”, the “growth inhibition (GI)” value (KM12) was “Active” and the “growth inhibition (GI)” value (K562) was “Active”. For the same molecule, the “growth inhibition (GI)” value (SN12C) was “Active”, the “growth inhibition (GI)” value (MCF7) was “Active” and the “growth inhibition (GI)” value (OVCAR-8) was “Active”. For the same molecule, the “growth inhibition (GI)” value (HCC 2998) was “Active”, the “growth inhibition (GI)” value (SR) was “Active” and the MIC (Aspergillus fumigatus [4]) was 10 µg/mL (≈ 24.1 µM). For the same molecule, the “growth inhibition (GI)” value (BT-549) was “Active”, the “growth inhibition (GI)” value (Hs-578T) was “Active” and the “growth inhibition (GI)” value (SK-MEL-5) was “Active”.

For `Cc1ccc2nc(Cl)c(Cn3nnnc3CSc3ccccc3)cc2c1`, the “growth inhibition (GI)” value (NCI-H23) was “Active”, the “growth inhibition (GI)” value (UACC-62) was “Active” and the “growth inhibition (GI)” value (HL-60(TB)) was “Active”. For the same molecule, the zone of inhibition at 100 µg/mL (Candida albicans [1]) was 12 mm, the “growth inhibition (GI)” value (SF-539) was “Active” and the “growth inhibition (GI)” value (786-0) was “Active”. The “growth inhibition (GI)” value (EKVX) was “Active”, the “growth inhibition (GI)” value (SF-295) was “Active” and the “growth inhibition (GI)” value (NCI/ADR-RES) was “Active”. The “growth inhibition (GI)” value (Malme-3M) was “Active”, the “growth inhibition (GI)” value (UO-31) was “Active” and the MIC (Candida albicans [2]) was 10 µg/mL (≈ 26.2 µM). For the same molecule, the “growth inhibition (GI)” value (SNB-75) was “Active”, the “growth inhibition (GI)” value (SK-OV-3) was “Active” and the “growth inhibition (GI)” value (T47D) was “Active”. The zone of inhibition at 100 µg/mL (Aspergillus fumigatus [3]) was 16 mm, the “growth inhibition (GI)” value (TK-10) was “Active” and the “growth inhibition (GI)” value (OVCAR-4) was “Active”. The “growth inhibition (GI)” value (M14) was “Active”, the “growth inhibition (GI)” value (MDA-MB-231) was “Active” and the “growth inhibition (GI)” value (NCI-H460) was “Active”. The “growth inhibition (GI)” value (COLO 205) was “Active”, the “growth inhibition (GI)” value (SNB-19) was “Active” and the “growth inhibition (GI)” value (SK-MEL-2) was “Active”. The “growth inhibition (GI)” value (HCT-15) was “Active”, the “growth inhibition (GI)” value (MDA-MB-468) was “Active” and the “growth inhibition (GI)” value (LOX IMVI) was “Active”. The “growth inhibition (GI)” value (ACHN) was “Active”, the “growth inhibition (GI)” value (OVCAR-3) was “Active” and the “growth inhibition (GI)” value (SW-620) was “Active”. For the same molecule, the “growth inhibition (GI)” value (MDA-MB-435) was “Active”, the “growth inhibition (GI)” value (UACC-257) was “Active” and the “growth inhibition (GI)” value (SK-MEL-28) was “Active”. For the same molecule, the “growth inhibition (GI)” value (OVCAR-5) was “Active”, the “growth inhibition (GI)” value (KM12) was “Active” and the “growth inhibition (GI)” value (K562) was “Active”. For the same molecule, the “growth inhibition (GI)” value (SN12C) was “Active”, the “growth inhibition (GI)” value (MCF7) was “Active” and the “growth inhibition (GI)” value (OVCAR-8) was “Active”. For the same molecule, the “growth inhibition (GI)” value (HCC 2998) was “Active”, the “growth inhibition (GI)” value (SR) was “Active” and the MIC (Aspergillus fumigatus [4]) was 25 µg/mL (≈ 65.5 µM). For the same molecule, the “growth inhibition (GI)” value (BT-549) was “Active”, the “growth inhibition (GI)” value (Hs-578T) was “Active” and the “growth inhibition (GI)” value (SK-MEL-5) was “Active”.
